Where two headings read alike, the source gives them in different places.
Legend:
[1] = test system: blood lymphocyte responses; conditions: cited from earlier work
[2] = test system: natural killer cells; assay: Animal study: number of natural killer cells in mice after treatment; assay type: in vivo; conditions: ten mice per group
[3] = cited from earlier work
[4] = white crystalline powder as provided; cited from earlier work
[5] = test system: immune system effects of systemic morphine; conditions: rats, cited from earlier work
[6] = microinjection into the third ventricle

SMILES | analgesic responses [1, 6] | inhibition of blood lymphocyte responses [1, 6] | plasma corticosterone concentration [1, 6] | effect on lymphocyte proliferation, plasma corticosterone concentrations or analgesic responses ([1]; systemic administration) | number of natural killer cells present after treatment compared to Group 1 (control) ([2]; Group 3: methylnaltrexone and morphine) | overt side effects ([3]; intravenous 0.45 mg/kg, volunteers) | half-life ([3]; intravenous compound) | solubility in water [4] | antagonism of immune system effects of systemic morphine injection ([5]; administered intracerebroventricularly) | antagonism of immune system effects of systemic morphine injection ([5]; administered subcutaneously) | number of natural killer cells present after treatment compared to Group 1 (control) ([2]; Group 2: placebo and morphine)
C[N+]1(C)CC[C@]23c4c5ccc(O)c4O[C@H]2[C@@H](O)C=C[C@H]3[C@@H]1C5 [N-methylmorphine] | maximal analgesic responses were present | 70% | significantly elevated | did not effect | – | – | – | – | – | – | –
C[N@+]1(CC2CC2)CC[C@]23c4c5ccc(O)c4O[C@H]2C(=O)CC[C@@]3(O)[C@H]1C5 [methylnaltrexone, N-cyclopropylmethylnoroxymorphine-methobromide] | – | – | – | – | comparable number of natural killer cells to Group 1 | not associated with any overt side effects | less than two | freely soluble in water | antagonize most of the immune system effects | failed to do so | –
CN1CC[C@]23c4c5ccc(O)c4O[C@H]2[C@@H](O)C=C[C@H]3[C@H]1C5 [morphine] | maximal analgesic responses were present | 70% | – | – | – | – | – | – | – | – | significant decrease in the number of natural killer cells
